Six molecules from ChEMBL document CHEMBL1201862, “PubChem BioAssay data set” (2004) can be followed below.

Structures are written as SMILES.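 Results reflect a 48-hour exposure of cells in 96-well plates to compound at five concentrations. GI50 is the concentration that inhibits growth by half.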 Calls of active or inactive are those of the source. Cut-off read from the data, not from the text of the source: active = GI50 up to about 1.1 µM and inactive = higher. *1 amine or outer side, *2 acyl side, *3 side chain or, on linkers, in order; H or OH if unused. Where a SMILES comes first, the peptide text is derived from it. [ ]: non-standard residue; d: D form. The star is where a group is joined. ξ: configuration not given here. X26 = O=C([C@H]1CCC[C@H]1N[*:1])[*:2]; ξW = NC(Cc1c[nH]c2ccccc12)C(=O)O; ξF = NC(Cc1ccccc1)C(=O)O; Boc = CC(C)(C)OC(=O)*; ξK = NCCCCC(N)C(=O)O; ξT = CC(O)C(N)C(=O)O; tBu = CC(C)(C)*

Common to all, as to test: DTP human tumour cell line panel, 48 h
The test system of assay [1] is T47D.
Assay [2] deals with PC-3.
For assay [3], the system named is OVCAR-5.
For assay [4], the system named is 786-0.
Assay [5] concerns HCT-15.
The test system of assay [6] is MCF7.
Assay [7] concerns NCI-H460.
Assay [8] relates to U-251.
Assay [9] concerns OVCAR-8.
For assay [10], the system named is IGROV-1.
Assay [11] concerns A549.
Assay [12] has as its system HCT-116.
Assay [13] has as its system SF-268.
For assay [14], the system named is MDA-MB-231.
The test system of assay [15] is SN12C.
Assay [16] relates to HL-60.
The test system of assay [17] is SK-MEL-28.
Assay [18] concerns CCRF-CEM.
The subject of assay [19] is ACHN.
Assay [20] relates to SK-OV-3.

Turning to `CCN(C(=O)N[C@@H](C)C(=O)N[C@@H](Cc1ccccc1)C(=O)OC)c1ccccc1`, the GI50 in [1] is 56.8 µM (inactive); in [2], > 100 µM (inactive); in assay [3], > 100 µM (inactive); in assay [4], 39 µM (inactive); in [5], 70.8 µM; in assay [6] it was > 100 µM (inactive). Further, the GI50 in assay [7] is 17.5 µM (inactive); in [8], > 100 µM (inactive); in assay [9], 51.3 µM (inactive); in assay [10], 44.7 µM (inactive); in assay [11], > 100 µM (inactive); in assay [12], > 100 µM (inactive). For the same molecule, the GI50 was > 100 µM (inactive) in assay [13]; > 100 µM (inactive) in assay [14]; 23 µM (inactive) in assay [15]; 28.4 µM (inactive) in assay [16]; 33.2 µM (inactive) in assay [17]; > 100 µM (inactive) in assay [18]. In addition, the GI50 in assay [19] and in assay [20] was > 100 µM (inactive) throughout.

Turning to `Cn1cnc2c1c(=O)n(CCNCCO)c(=O)n2C`, the GI50 in [1] is > 100 µM (inactive); in [2], > 100 µM (inactive); in [3], > 100 µM (inactive); in assay [4], > 100 µM (inactive); in [5], more than 100 µM; in assay [6], > 100 µM (inactive). Further, the GI50 in assay [7], in assay [8], in assay [9], in [10], in [11] and in [12] was > 100 µM (inactive) in each case. The GI50 in assay [13], in assay [14], in assay [15], in [16], in [17] and in assay [18] was > 100 µM (inactive) throughout. The GI50 in assay [19] and in assay [20] was > 100 µM (inactive) throughout.

For `CC(OC(C)(C)C)C1NC(=O)C(CCCCNC(=O)OC(C)(C)C)NC(=O)C(Cc2c[nH]c3ccccc23)NC(=O)C(Cc2ccccc2)NC(=O)[C@H]2CCC[C@H]2NC(=O)C(Cc2ccccc2)NC1=O` (stereo not given in full) (cyclo([X26][ξF][ξW][ξK](Boc)[ξT](tBu)[ξF])), the GI50 is 15.2 µM (inactive) in assay [1]; 6.37 µM (inactive) in assay [2]; 17.9 µM (inactive) in assay [3]; > 100 µM (inactive) in assay [4]; more than 100 µM in assay [5]; 11.6 µM (inactive) in [6]. For the same molecule, the GI50 in assay [7] was 38.2 µM (inactive); in assay [8], 25.5 µM (inactive); in [9], 18.2 µM (inactive); in [10], 50.4 µM (inactive); in assay [11] it was 73.3 µM (inactive); in assay [12], 7.26 µM (inactive). Further, the GI50 in assay [13] was > 100 µM (inactive); in assay [14], 31.8 µM (inactive); in assay [15] it was 17.2 µM (inactive); in assay [16], > 100 µM (inactive); in [17], > 100 µM (inactive); in assay [18], 9.06 µM (inactive). Moreover, the GI50 in assay [19] was > 100 µM (inactive); in assay [20], 48 µM (inactive).

Turning to `C[C@@H]1CCC([C@@H](C)[C@H]2CC[C@H]3[C@@H]4CC[C@H]5C[C@@H](O)CC[C@]5(C)[C@H]4CC[C@]23C)=NC1`, the GI50 in assay [1] is 12.7 µM (inactive); in [2] it was 10.1 µM (inactive); in assay [3], 24.4 µM (inactive); in assay [4], 8.02 µM (inactive); in [5], 2.76 µM; in [6], 9.04 µM (inactive). For the same molecule, the GI50 in assay [7] was 7.62 µM (inactive); in assay [8], 8.63 µM (inactive); in assay [9], 8.11 µM (inactive); in [10] it was 4.71 µM (inactive); in assay [11], 16.9 µM (inactive); in assay [12], 6.43 µM (inactive). Moreover, the GI50 in [13] was 12.6 µM (inactive); in assay [14], 30 µM (inactive); in [15], 8.59 µM (inactive); in assay [16] it was 1.36 µM (inactive); in assay [17] it was 20.1 µM (inactive); in assay [18] it was > 41.1 µM (inactive). The GI50 in assay [19] was 14 µM (inactive); in assay [20], 30.9 µM (inactive).

Regarding `COC(=O)c1ccccc1CC1Cc2ccc3c(c2C1=O)CCC3` (stereo not given), the GI50 was 19.7 µM (inactive) in [1]; 22.5 µM (inactive) in [2]; > 100 µM (inactive) in [3]; 80.5 µM (inactive) in [4]; 50 µM in assay [5]; 20.7 µM (inactive) in [6]. Moreover, the GI50 was 92.3 µM (inactive) in [7]; 51.1 µM (inactive) in assay [8]; 49.5 µM (inactive) in assay [9]; > 100 µM (inactive) in [10]; > 100 µM (inactive) in assay [11]; 37.1 µM (inactive) in [12]. Also, the GI50 was > 100 µM (inactive) in [13]; 46.2 µM (inactive) in [14]; > 100 µM (inactive) in [15]; 16.6 µM (inactive) in [16]; 37.2 µM (inactive) in assay [17]; 55.8 µM (inactive) in assay [18]. The GI50 in [19] is 41.5 µM (inactive); in [20] it was > 100 µM (inactive).

Regarding `CN(CC(=O)O)Cc1oc(CO)cc(=O)c1O`, the GI50 in assay [1] is > 100 µM (inactive); in assay [2] it was > 100 µM (inactive); in assay [3], > 100 µM (inactive); in [4] it was > 100 µM (inactive); in [5] it was more than 100 µM; in assay [6], > 100 µM (inactive). In addition, the GI50 in [7], in assay [8], in assay [9], in assay [10], in assay [11] and in assay [12] was > 100 µM (inactive) throughout. Moreover, the GI50 in assay [13] was > 100 µM (inactive); in assay [14], > 100 µM (inactive); in [15], > 100 µM (inactive); in assay [16], 30 µM (inactive); in [17] it was > 100 µM (inactive); in [18], > 100 µM (inactive). Moreover, the GI50 in [19] and in assay [20] was > 100 µM (inactive) throughout.
